Among the data in the Kinase Knowledgebase extract (Sharma et al. 2016) are IC50 values, retold here.

As a reminder, the IC50 is the concentration that gives 50% inhibition. A high value points to weaker potency.

The assay deals with CDK2 (UniProt P24941). In words: Enzyme Assay.

Where only a bound is given, the exact number is not on record here.

Molecule `O=C(Cc1ccc(Br)cc1)Nc1n[nH]c2c1CCC2` showed an IC50 of 1.1 µM.

`COc1ccc(OC)c(CC(=O)Nc2n[nH]c3c2CCC3)c1`: the half-maximal inhibitory concentration (IC50) worked out at 5.2 µM.

For `O=C(Nc1n[nH]c2c1CCC2)C1CC1`, the IC50 came to 4 µM.

With `O=C(Nc1n[nH]c2c1CCC2)c1cccc(F)c1`, the 50% inhibitory concentration (IC50) came to 5 µM.

The molecule `O=C(Nc1n[nH]c2c1CCC2)c1ccc2c(c1)OCO2` displayed an IC50 of 4 µM.

With `COc1cccc(CC(=O)Nc2n[nH]c3c2CCC3)c1`, the concentration for half-maximal inhibition (IC50) came to 7.6 µM.

`O=C(Cc1cccc(-c2ccccc2)c1)Nc1n[nH]c2c1CCC2` came in with a 50% inhibitory concentration (IC50) of 8 µM.

The molecule `COc1cccc(-c2ccc(CC(=O)Nc3n[nH]c4c3CCC4)cc2)c1` registered a half-inhibitory concentration (IC50) of less than 10 µM.

Take `O=C(Cc1cccs1)Nc1n[nH]c2c1CCC2`: the half-maximal inhibitory concentration (IC50) was determined as 4 µM.

Molecule `O=C(Cc1ccc(-c2ccccc2)cc1)Nc1n[nH]c2c1CCC2` returned a 50% inhibitory concentration (IC50) of 1 µM.

As to `O=C(Cc1ccc(I)cc1)Nc1n[nH]c2c1CCC2`, the IC50 came out at 0.8 µM.

Turning to `O=C(Cc1ccc(-c2ccccc2F)cc1)Nc1n[nH]c2c1CCC2`, the IC50 was determined as 7 µM.

The molecule `CC(=O)c1ccc(-c2ccc(CC(=O)Nc3n[nH]c4c3CCC4)cc2)cc1` returned an IC50 of 6.5 µM.

`O=C(Cc1ccccc1)Nc1n[nH]c2c1CCC2` gave a concentration for half-maximal inhibition (IC50) of 1.5 µM.

Consider `O=C(Nc1n[nH]c2c1CCC2)c1cccs1`, for which the IC50 stood at 4 µM.

As for `CC(C)(C)c1ccc(CC(=O)Nc2n[nH]c3c2CCC3)cc1`, the 50% inhibitory concentration (IC50) worked out at 1 µM.

Molecule `O=C(Cc1cccc(Br)c1)Nc1n[nH]c2c1CCC2` showed an IC50 of 1.5 µM.

Consider `COc1ccc(-c2ccc(CC(=O)Nc3n[nH]c4c3CCC4)cc2)cc1`, for which the IC50 was less than 10 µM.

As for `COc1ccc(C(=O)Nc2n[nH]c3c2CCC3)cc1`, the 50% inhibitory concentration (IC50) was 6 µM.

As for `COc1ccccc1-c1ccc(CC(=O)Nc2n[nH]c3c2CCC3)cc1`, the IC50 was less than 10 µM.

Turning to `O=C(Nc1n[nH]c2c1CCC2)c1ccccc1`, the half-maximal inhibitory concentration (IC50) turned out to be 7 µM.

Take `COc1ccc(CC(=O)Nc2n[nH]c3c2CCC3)cc1`: the half-maximal inhibitory concentration (IC50) turned out to be 0.7 µM.

For `CSc1ccc(CC(=O)Nc2n[nH]c3c2CCC3)cc1`, the half-inhibitory concentration (IC50) was found to be 1.5 µM.

Molecule `CC(=O)c1cccc(-c2ccc(CC(=O)Nc3n[nH]c4c3CCC4)cc2)c1` showed a half-maximal inhibitory concentration (IC50) of 4.3 µM.

On to `O=C(Cc1ccc(-c2ccc(F)cc2)cc1)Nc1n[nH]c2c1CCC2`, for which the half-inhibitory concentration (IC50) is less than 10 µM.

`O=C(CCc1ccccc1)Nc1n[nH]c2c1CCC2`: the IC50 was found to be 3 µM.

`O=C(Cc1ccc(F)cc1)Nc1n[nH]c2c1CCC2`: the IC50 stood at 3 µM.

Molecule `O=C(Cc1ccc(-c2cccc(F)c2)cc1)Nc1n[nH]c2c1CCC2` came in with a 50% inhibitory concentration (IC50) of 7 µM.
